Experimental data published in PubChem BioAssay AID651569 (Sanford-Burnham Center for Chemical Genomics, 2012).
Activity calls are given as the source filed them. The rule behind the calls is not given here.

Each molecule was assayed on luminescent cytotoxicity (cell viability) counter-screen (assay: cytotoxicity of Gli-SUFU antagonist hits, dose response, cytotoxicity control for Gli-SUFU antagonist project, cell-based, luminescence, uHTS hits (AID 651569);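 note: compound exposure lasted overnight before the viability readout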).

Compound	IC50
COc1cccc(/C=C/c2ccncc2)c1OC	> 20 µM (inactive)
Cc1cccc(CCN2C(N(C)C)=NC[C@@H]2CC(C)C)c1	18.2 µM
Cc1cc(Br)c(S(=O)(=O)NCc2ccncc2)cc1C	> 20 µM (inactive)
COc1ccc(NC(=S)N2CCC(Cc3ccccc3)CC2)cc1	> 20 µM (inactive)
Cc1cc(-c2ccccc2)cc(-c2ccccc2)[n+]1C	> 20 µM (inactive)
Cc1cccnc1CN1CCN(C(=O)c2cc(COc3ccc4ncccc4c3)on2)CC1	> 20 µM (inactive)
CCCCCCC[N+](CC)(CC)CCCCc1ccc(Cl)cc1	> 20 µM (inactive)
Cc1ccc(Cl)cc1N1CCN(C(=O)CSc2nnc3n2C(C)(C)Cc2ccccc2-3)CC1	> 20 µM (inactive)
CC[N+](CC)(CC#Cc1ccccc1)CC#Cc1ccccc1	> 20 µM (inactive)
CC(Sc1nc2ccccc2c(=O)n1C)C(=O)N(C)C1CCCCC1 (stereo not given)	> 20 µM (inactive)
O=C(N[C@@H]1C/C=C\C[C@@H](CC(=O)N(CCO)Cc2ccccc2)C(=O)NC[C@H](c2ccccc2)OC1=O)OCC1c2ccccc2-c2ccccc21	> 20 µM (inactive)
O=C(NC1CCCC1)c1cc(COc2ccc3ncccc3c2)on1	> 20 µM (inactive)
CCOc1ccc(NC(=S)NNc2ccnc3cc(Cl)ccc23)cc1	> 20 µM (inactive)
CC1CN(S(=O)(=O)c2ccc(C(=O)Nc3nc(-c4cc5ccccc5o4)cs3)cc2)CC(C)O1 (stereo not given)	> 20 µM (inactive)
O=C(N[C@@H]1C/C=C\C[C@@H](CC(=O)N(CCO)Cc2ccccc2)C(=O)NCCOC1=O)OCC1c2ccccc2-c2ccccc21	> 20 µM (inactive)
Cc1c(CCOC(=O)C23CC4CC(CC(C)(C4)C2)C3)sc[n+]1Cc1ccccc1	> 20 µM (inactive)
O=C(COC(=O)c1ccc2[nH]c3c(c2c1)CCCC3)Nc1ccccc1Cl	> 20 µM (inactive)
CN(Cc1ccc(OCC(O)CN2CCCCC2)cc1)Cc1ccnc2ccccc12 (stereo not given)	> 20 µM (inactive)
Cc1ccc(C)c(-c2csc(NC(=O)C3=COCCO3)n2)c1	> 20 µM (inactive)
FC(F)Oc1ccc(-n2cc(-c3ccccc3)[n+]3c2CCCCC3)cc1	> 20 µM (inactive)
NC(=O)CC(NC(=O)c1ccccc1)c1ccc(N2CCCCCC2)c([N+](=O)[O-])c1 (stereo not given)	> 20 µM (inactive)
COc1ccc(CNc2ncnc3c2[nH]c2ccccc23)cc1	> 20 µM (inactive)
CCCOc1ccc(Br)cc1CSC(=N)N	8.78 µM

Compound	IC50
C[N+]1=C(/C=C/Nc2ccccc2)C(C)(C)c2ccccc21	> 20 µM (inactive)
CCn1c(C)nc2cc(-c3nnc(-c4c(-c5ccccc5)noc4C)o3)ccc21	> 20 µM (inactive)
CCOc1ccc(-c2nc(CSCC(=O)NC3CC3)c(C)o2)cc1	> 20 µM (inactive)
C=CCNC(=S)/N=c1/ccccn1Cc1ccccc1	> 20 µM (inactive)
CCOC(=O)c1ccc(NC(=O)Cn2cnc3cc(C)c(C)cc32)cc1	> 20 µM (inactive)
O=C(Cn1cc(C(=O)C2CC2)c2ccccc21)Nc1ccccc1Cl	> 20 µM (inactive)
CCCN1CCC(=O)N([C@H](CSc2ccc(OC)cc2)Cc2ccccc2)CC1	> 20 µM (inactive)
COc1cccc(CN(C)C(=O)c2cc(COc3ccc4ncccc4c3)on2)c1	> 20 µM (inactive)
Cc1ccc(C(=O)N2CCN3C(=O)c4ccccc4C23c2ccc(Cl)cc2)cc1 (stereo not given)	> 20 µM (inactive)
COc1ccc(OC)c(Cc2cnc3nc(N)nc(N)c3c2C)c1	> 20 µM (inactive)
COc1ccc(CN(C)C(=O)c2cccc(NC(=O)CC3SC(N4CCCCC4)=NC3=O)c2)c(OC)c1 (stereo not given)	> 20 µM (inactive)
CCCOc1ccccc1N/C(=N/c1nc(C)cc(C)n1)NC(=O)COc1ccc(OC)cc1	> 20 µM (inactive)
O=C(N[C@H]1C/C=C\C[C@@H](CC(=O)N(CCO)Cc2ccccc2)C(=O)NC[C@H](c2ccccc2)OC1=O)OCC1c2ccccc2-c2ccccc21	> 20 µM (inactive)
CC(=O)c1ccc(N2CCN(c3ccc(C(F)(F)F)cn3)CC2)cc1	> 20 µM (inactive)
CCCCn1c(CN(C)Cc2ccccc2)nc2c1c(=O)n(C)c(=O)n2C	> 20 µM (inactive)
COc1ccccc1CCNC(=O)c1cc(-c2ccncc2)nc2ccc(Br)cc12	> 20 µM (inactive)
COc1ccccc1CN(Cc1nc2ccccc2c(=O)[nH]1)S(=O)(=O)c1ccc(C)cc1	> 20 µM (inactive)
Cc1cc(C)c[n+](C(C)C(=O)c2ccc(-c3ccccc3)cc2)c1 (stereo not given)	> 20 µM (inactive)
CCCn1c(SCC(=O)Nc2nc(-c3ccc(OC)cc3)cs2)nc2c1c(=O)n(C)c(=O)n2C	> 20 µM (inactive)
CC(C)C(=O)N1CCN(c2ccccc2NC(=O)COc2ccccc2)CC1	> 20 µM (inactive)
CC[N+](C)(CC)CCC(c1ccccc1)C1CCCCC1 (stereo not given)	> 20 µM (inactive)
COc1ccc(C(C(=O)NC2CCCCC2)N(C(=O)CCl)c2ccc(Cl)cc2)cc1 (stereo not given)	4.86 µM
O=C(N[C@@H]1C/C=C\C[C@H](CC(=O)N(CCO)Cc2ccccc2)C(=O)N[C@@H](Cc2c[nH]c3ccccc23)COC1=O)OCC1c2ccccc2-c2ccccc21	> 20 µM (inactive)

Compound	IC50
Cc1cc(/C=C2/SC(=S)N(c3ccc([N+](=O)[O-])cc3)C2=O)c(C)n1-c1cccnc1	> 20 µM (inactive)
O=[N+]([O-])c1ccc(N2CCN(C(=S)NCc3ccc(Cl)cc3)CC2)cc1	> 20 µM (inactive)
Cc1cc(/C=N/n2cnnc2)c(C)n1-c1ccc(OCc2ccccc2F)cc1	16.3 µM
Cn1nc(CC(=O)NCc2ccc(C(F)(F)F)cc2)c2ccccc2c1=O	> 20 µM (inactive)
COc1ccc(Cn2c(-c3ccc(Cl)cc3)c[n+]3ccccc23)cc1	> 20 µM (inactive)
O=C(NC(c1cccnc1)C(F)(F)F)c1cc(COc2ccc3c(c2)CCCC3)on1 (stereo not given)	> 20 µM (inactive)
CCOC(=O)c1c(NC(=O)C(=O)N/N=C/c2ccccc2O)sc2c1CCCCC2	19 µM
O=C(C[n+]1cc(-c2ccccc2)n2c1CCCCC2)c1ccc(Cl)cc1	> 20 µM (inactive)
CC[N+]1=C(C)C(C)(C)c2cc(C)ccc21	> 20 µM (inactive)
C=CCOC(=O)c1[nH]c2c(c1C)C(=O)CC(c1cc(OC)c(OC)c(OC)c1)C2 (stereo not given)	> 20 µM (inactive)
O=C(Nc1nc(-c2cccs2)cs1)c1cccc(S(=O)(=O)N2CCCCCC2)c1	> 20 µM (inactive)
CCN(CC(=O)Nc1c(F)cccc1F)C(=O)c1cc(S(=O)(=O)N(CC)CC)ccc1N1CCCCC1	9.1 µM
Cc1ccc(-c2c[n+](Cc3ccc(Cl)c(Cl)c3)c3n2CCC3)cc1	13.7 µM
O=C(Nc1cc2c3c(c1)C1CCCC1CN3CC1CCCC21)c1ccc([N+](=O)[O-])cc1 (stereo not given)	> 20 µM (inactive)
CC(C)(C)[C@H]1COC(=O)[C@H](NC(=O)OCC2c3ccccc3-c3ccccc32)C/C=C\C[C@@H](CC(=O)N[C@@H](CO)Cc2ccccc2)C(=O)N1	> 20 µM (inactive)
COc1ccc(-n2c(-c3ccc(Cl)cc3)c[n+]3c2CCc2ccccc2-3)cc1	> 20 µM (inactive)
FC(F)Oc1ccc(-c2c[n+]3c(n2-c2ccccc2)CCCCC3)cc1	> 20 µM (inactive)
NC(=O)c1c(-c2ccc(Cl)cc2Cl)csc1NC(=O)Cc1ccccc1	16.8 µM
Cc1nn(-c2ccc(NC(=O)c3ccncc3)cc2)c(C)c1Cl	> 20 µM (inactive)
CCOC(=O)c1sc2nc(CC(=O)OC)nc(NCc3ccc(Cl)cc3)c2c1C	> 20 µM (inactive)
Cn1c(=O)c2c(nc(NCCOc3ccc(C(C)(C)C)cc3)n2C)n(C)c1=O	> 20 µM (inactive)
CCC(C(=O)NCCC(C)C)n1ccc2cc(S(=O)(=O)N3CCCCC3)ccc21 (stereo not given)	> 20 µM (inactive)
O=c1c2ccccc2sc2c(CO)ccc(NCCN3CCCCC3)c12	19.1 µM

Compound	IC50
CCOc1ccc(-n2c(O)c(/C=N/Nc3nc(C)cc(C)n3)c3ccccc3c2=O)cc1	> 20 µM (inactive)
CC(C)C[C@H]1CN=C(N(C)C)N1CCCCc1ccccc1	> 20 µM (inactive)
CC1Cc2cc(S(=O)(=O)N3CCC(C(=O)N4CCN(c5ccccc5F)CC4)CC3)ccc2N1C(=O)C1CC1 (stereo not given)	7.01 µM
FC(F)(F)c1ccc(N2CCN(c3cc(-c4ccccc4)nc4ncnn34)CC2)nc1	> 20 µM (inactive)
CC[C@@H](O)C[C@H]1CCC[C@@]2(C[C@@H]3OC(=O)/C=C/[C@@](C)(O)[C@@H](O)[C@H](C)[C@@H](O)[C@H](OC4CCC(N(C)C)C(C)O4)[C@@H](O)[C@](C)(O)CCCCC/C=C/[C@@H]4CC(C)(C)O[C@@]4(O)C[C@H](O2)[C@H]3C)O1 (stereo not given in full)	> 20 µM (inactive)
O=C(Cc1ccc(Cl)cc1Cl)Nc1ccncc1	> 20 µM (inactive)
COc1ccccc1CCNC(=O)C(=O)NCCC1CCCCN1S(=O)(=O)c1cccs1 (stereo not given)	13.1 µM
O=C(Nc1ccccc1)C1=C[C@@H](C2CCCCC2)C[C@@H](OCCCCO)O1	> 20 µM (inactive)
COc1ccc(NS(=O)(=O)c2ccc(NC(C)=O)cc2)cc1OC	> 20 µM (inactive)
CCCCCCCOc1ccc(OC(=O)c2ccncc2)cc1	> 20 µM (inactive)
CN(CCOc1ccc(Cl)cc1)C(=O)c1cccc(S(=O)(=O)N2CCN(c3ccc(F)cc3)CC2)c1	> 20 µM (inactive)
Cc1nnsc1C(=O)NC1CCCc2c1cnn2-c1ccc(F)cc1F (stereo not given)	> 20 µM (inactive)
CCCCCCn1c(=O)c(C(=O)Nc2cnccn2)c(O)c2ccccc21	> 20 µM (inactive)
CCN1C(=O)CCN(C2CCCC2)c2nc(Nc3ccc(C(=O)NC4CCN(C)CC4)cc3OC)ncc21	> 20 µM (inactive)
Cc1ccc(OCCN2CCN(c3ncnc4sc(C)c(C)c34)CC2)cc1	> 20 µM (inactive)
COCCNC(=O)CSCc1nc(-c2ccc(SC)cc2)oc1C	> 20 µM (inactive)
COc1ccccc1N1CCN(c2ncc(C(=O)N3CCN(c4cccc(Cl)c4)CC3)c3ccccc23)CC1	> 20 µM (inactive)
O=C(N[C@@H]1C/C=C\C[C@H](CC(=O)N(CCO)Cc2ccccc2)C(=O)NC[C@@H](c2ccccc2)OC1=O)OCC1c2ccccc2-c2ccccc21	> 20 µM (inactive)
Cc1csc2ncnc(NCCc3ccccn3)c12	> 20 µM (inactive)
O=C(N/N=C/c1cc2ccccc2nc1Cl)[C@H]1C[C@@H]1c1ccccc1	> 20 µM (inactive)
O=C(c1cccc(S(=O)(=O)N2CCN(c3ccccc3)CC2)c1)N1CCCC(C(F)(F)F)C1 (stereo not given)	> 20 µM (inactive)
